Tests used:
[1] = test system: barnyardgrass; test: Test D flooded paddy test; format: in vivo, Echinochloa crus-galli; conditions: 250 g ai/ha, applied to paddy water, visual rating after 13 to 14 days, scale 0 to 100 (0 no effect, 100 complete control)
Method in brief: (§1)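 Plants at the 2-leaf stage were grown in pots flooded to 3 cm, and compound was applied directly into the paddy water, with depth kept throughout. After 13–14 days in a greenhouse, injury was rated visually against untreated controls on a 0–100 scale (100 = complete control); a dash means not tested.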

[2] = test system: oat, wild; test: Test C preemergence; format: in vivo, Avena fatua
Method in brief: (§2)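 Seeds in loam–sand blend received preemergence directed soil spray of test chemicals in non-phytotoxic solvent with surfactant; postemergence treatment was applied at one- to two-leaf stage (2–10 cm). After 10 days in greenhouse, injury rated visually versus untreated controls, 0 (no effect) to 100 (complete control).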

[3] = test system: wheat; test: Test C postemergence; format: in vivo, Triticum aestivum; conditions: 10 days, 0 to 100 scale (0 no effect, 100 complete control)
Method in brief: as §2

[4] = test system: kochia; test: Test C postemergence; format: in vivo, Bassia scoparia; conditions: 10 days, 0 to 100 scale (0 no effect, 100 complete control)
Method in brief: as §2

[5] = test system: oat, wild; test: Test C postemergence; format: in vivo, Avena fatua; conditions: 10 days, 0 to 100 scale (0 no effect, 100 complete control)
Method in brief: as §2

[6] = test system: corn; test: Test C preemergence; format: in vivo, Zea mays; conditions: Preemergence, 125 g ai/ha; 0 to 100 scale, 0 no effect, 100 complete control
Method in brief: as §2

[7] = test system: ryegrass, Italian; test: Test C preemergence; format: in vivo, Lolium multiflorum
Method in brief: as §2

[8] = test system: pigweed, palmer; test: Test C postemergence; format: in vivo, Amaranthus palmeri; conditions: 10 days, 0 to 100 scale (0 no effect, 100 complete control)
Method in brief: as §2

[9] = test system: foxtail, giant; test: Test C postemergence; format: in vivo, Setaria faberi; conditions: 10 days, 0 to 100 scale (0 no effect, 100 complete control)
Method in brief: as §2

[10] = test system: barnyardgrass; test: Test C preemergence; format: in vivo, Echinochloa crusgalli
Method in brief: as §2

[11] = test system: horseweed; test: Test C postemergence; format: in vivo, Erigeron canadensis; conditions: 10 days, 0 to 100 scale (0 no effect, 100 complete control)
Method in brief: as §2

[12] = test system: foxtail, giant; test: Test C preemergence; format: in vivo, Setaria faberi
Method in brief: as §2

[13] = test system: ragweed; test: Test C postemergence; format: in vivo, Ambrosia artemisiifolia; conditions: 10 days, 0 to 100 scale (0 no effect, 100 complete control)
Method in brief: as §2

[14] = test system: pigweed, palmer; test: Test C preemergence; format: in vivo, Amaranthus palmeri
Method in brief: as §2

[15] = test system: ducksalad; test: Test D flooded paddy test; format: in vivo, Heteranthera limosa; conditions: 250 g ai/ha, applied to paddy water, visual rating after 13 to 14 days, scale 0 to 100 (0 no effect, 100 complete control)
Method in brief: as §1

[16] = test system: soybean; test: Test C postemergence; format: in vivo, Glycine max; conditions: 10 days, 0 to 100 scale (0 no effect, 100 complete control)
Method in brief: as §2

[17] = test system: rice; test: Test D flooded paddy test; format: in vivo, Oryza sativa; conditions: 250 g ai/ha, applied to paddy water, visual rating after 13 to 14 days, scale 0 to 100 (0 no effect, 100 complete control)
Method in brief: as §1

[18] = test system: barnyardgrass; test: Test C postemergence; format: in vivo, Echinochloa crusgalli; conditions: 10 days, 0 to 100 scale (0 no effect, 100 complete control)
Method in brief: as §2

[19] = test system: blackgrass; test: Test C postemergence; format: in vivo, Alopecurus myosuroides; conditions: 10 days, 0 to 100 scale (0 no effect, 100 complete control)
Method in brief: as §2

[20] = test system: soybean; test: Test C preemergence; format: in vivo, Glycine max
Method in brief: as §2

[21] = test system: ryegrass, Italian; test: Test C postemergence; format: in vivo, Lolium multiflorum; conditions: 10 days, 0 to 100 scale (0 no effect, 100 complete control)
Method in brief: as §2

[22] = test system: ragweed; test: Test C preemergence; format: in vivo, Ambrosia artemisiifolia
Method in brief: as §2

[23] = test system: kochia; test: Test C preemergence; format: in vivo, Bassia scoparia
Method in brief: as §2

[24] = test system: galium; test: Test C postemergence; format: in vivo, Galium aparine; conditions: 10 days, 0 to 100 scale (0 no effect, 100 complete control)
Method in brief: as §2

[25] = test system: corn; test: Test C postemergence; format: in vivo, Zea mays; conditions: 10 days, 0 to 100 scale (0 no effect, 100 complete control)
Method in brief: as §2

[26] = test system: wheat; test: Test C preemergence; format: in vivo, Triticum aestivum
Method in brief: as §2

[27] = test system: sedge, umbrella; test: Test D flooded paddy test; format: in vivo, Cyperus difformis; conditions: 250 g ai/ha, applied to paddy water, visual rating after 13 to 14 days, scale 0 to 100 (0 no effect, 100 complete control)
Method in brief: as §1

[28] = test system: blackgrass; test: Test C preemergence; format: in vivo, Alopecurus myosuroides
Method in brief: as §2

[29] = 500 g ai/ha, preemergence, 0 to 100 scale (0 no effect, 100 complete control)
[30] = Preemergence, 125 g ai/ha, 0 to 100 scale, 0 no effect, 100 complete control

SMILES: COc1ccc(-n2cnc(C3CC3)n2)cc1C(=O)N1C[C@H](C)Oc2c(Cl)cccc21 [Compound 324]
- Plant response rating, Barnyardgrass (Flood) [1]: 40
- Oat, Wild plant response rating [2, 29]: 90
- Plant response rating, Oat, Wild [2, 30]: 0
- Plant response rating, Wheat ([3]; 500 g ai/ha, postemergence): 30
- Plant response rating, Wheat ([3]; Postemergence, 125 g ai/ha): 30
- Plant response rating, Kochia ([4]; 500 g ai/ha, postemergence): 100
- Plant response rating, Kochia ([4]; Postemergence, 125 g ai/ha): 90
- Plant response rating, Oat, Wild ([5]; 500 g ai/ha, postemergence): 70
- Plant response rating, Oat, Wild ([5]; Postemergence, 125 g ai/ha): 10
- Plant response rating, Corn [6]: 0
- Ryegrass, Italian plant response rating [7, 29]: 100
- Plant response rating, Ryegrass, Italian [7, 30]: 80
- Plant response rating, Pigweed, Palmer ([8]; 500 g ai/ha, postemergence): 100
- Plant response rating, Pigweed, Palmer ([8]; Postemergence, 125 g ai/ha): 90
- Plant response rating, Foxtail, Giant ([9]; 500 g ai/ha, postemergence): 90
- Plant response rating, Foxtail, Giant ([9]; Postemergence, 125 g ai/ha): 80
- Barnyardgrass plant response rating [10, 29]: 100
- Plant response rating, Barnyardgrass [10, 30]: 90
- Plant response rating, Horseweed ([11]; 500 g ai/ha, postemergence): 80
- Plant response rating, Horseweed ([11]; Postemergence, 125 g ai/ha): 60
- Foxtail, Giant plant response rating [12, 29]: 100
- Plant response rating, Foxtail, Giant [12, 30]: 90
- Plant response rating, Ragweed ([13]; 500 g ai/ha, postemergence): 70
- Plant response rating, Ragweed ([13]; Postemergence, 125 g ai/ha): 60
- Pigweed, Palmer plant response rating [14, 29]: 100
- Plant response rating, Pigweed, Palmer [14, 30]: 100
- Plant response rating, Ducksalad (Flood) [15]: 80
- Plant response rating, Soybean ([16]; 500 g ai/ha, postemergence): 100
- Plant response rating, Soybean ([16]; Postemergence, 125 g ai/ha): 100
- Plant response rating, Rice (Flood) [17]: 10
- Plant response rating, Barnyardgrass ([18]; 500 g ai/ha, postemergence): 80
- Plant response rating, Barnyardgrass ([18]; Postemergence, 125 g ai/ha): 50
- Plant response rating, Blackgrass ([19]; 500 g ai/ha, postemergence): 90
- Plant response rating, Blackgrass ([19]; Postemergence, 125 g ai/ha): 90
- Soybean plant response rating [20, 29]: 90
- Plant response rating, Soybean [20, 30]: 100
- Plant response rating, Ryegrass, Italian ([21]; 500 g ai/ha, postemergence): 50
- Plant response rating, Ryegrass, Italian ([21]; Postemergence, 125 g ai/ha): 40
- Ragweed plant response rating [22, 29]: 90
- Plant response rating, Ragweed [22, 30]: 50
- Kochia plant response rating [23, 29]: 90
- Plant response rating, Kochia [23, 30]: 90
- Plant response rating, Galium ([24]; 500 g ai/ha, postemergence): 100
- Plant response rating, Galium ([24]; Postemergence, 125 g ai/ha): 100
- Plant response rating, Corn ([25]; 500 g ai/ha, postemergence): 90
- Plant response rating, Corn ([25]; Postemergence, 125 g ai/ha): 70
- Wheat plant response rating [26, 29]: 90
- Plant response rating, Wheat [26, 30]: 10
- Plant response rating, Sedge, Umbrella (Flood) [27]: 98
- Blackgrass plant response rating [28, 29]: 90
- Plant response rating, Blackgrass [28, 30]: 70
